Target: CDK2 (human) (UniProt P24941)
Experiment: Enzyme Assay

IC50 [µM]	SMILES
< 100	Cc1c(N[C@H]2CC[C@H](N)CC2)nc2ccnn2c1Nc1ccc(-c2cccc(N(C)C)c2)cc1
< 100	COc1cccc(Nc2c(C)c(N[C@H]3CC[C@H](N)CC3)nc3ccnn23)c1
< 100	Cc1c(N[C@H]2CC[C@H](N)CC2)nc2ccnn2c1Nc1cccc(Br)c1
< 100	CCc1c(N[C@H]2CC[C@H](N)CC2)nc2ccnn2c1Nc1ccc(OC(F)(F)F)cc1
< 100	CCOc1cccc(Nc2c(C)c(N[C@H]3CC[C@H](N)CC3)nc3ccnn23)c1
< 100	Cc1c(N[C@H]2CC[C@H](N)CC2)nc2ccnn2c1Nc1cccc(OCc2ccc(Cl)cc2)c1
< 100	CCc1c(NC2CCCNC2)nc2ccnn2c1Nc1ccc(F)c(Cl)c1 (stereo unspecified)
< 100	COc1cccc(COc2ccc(Nc3c(C)c(N[C@H]4CC[C@H](N)CC4)nc4ccnn34)cc2)c1
< 100	Cc1c(N[C@H]2CC[C@H](N)CC2)nc2ccnn2c1Nc1ccc(OCCc2ccccn2)cc1
< 100	Cc1c(NC2CCCNC2)nc2ccnn2c1Nc1ccc(-c2ccsc2)cc1 (stereo unspecified)
< 100	CCc1c(N[C@H]2CC[C@H](N)CC2)nc2ccnn2c1Nc1cccc(Br)c1
< 100	Cc1c(N[C@H]2CC[C@H](N)CC2)nc2ccnn2c1Nc1cccc(Cl)c1
< 100	CCc1c(N[C@H]2CC[C@H](N)CC2)nc2ccnn2c1NCc1ccccc1Cl
< 100	Cc1c(N[C@H]2CC[C@H](N)CC2)nc2ccnn2c1Nc1ccc(-c2ccc(N)cc2)cc1
< 100	Cc1c(N[C@H]2CC[C@H](N)CC2)nc2ccnn2c1Nc1ccc(OC(F)(F)F)cc1
< 100	CCOc1ccc(Nc2c(C)c(N[C@H]3CC[C@H](N)CC3)nc3c(C(=O)Nc4ncc[nH]4)cnn23)cc1
< 100	Cc1ccccc1-c1ccc(Nc2c(C)c(N[C@H]3CC[C@H](N)CC3)nc3ccnn23)cc1
< 100	Cc1c(N[C@H]2CC[C@H](N)CC2)nc2ccnn2c1Nc1ccc2cn[nH]c2c1
< 100	N[C@H]1CC[C@H](Nc2cc(Nc3ccccc3Cl)n3ncc(I)c3n2)CC1
< 100	Cc1c(N[C@H]2CC[C@H](N)CC2)nc2ccnn2c1Nc1ccc2[nH]ccc2c1
< 100	CCOc1ccc(Nc2c(C)c(N[C@H]3CC[C@H](N)CC3)nc3c(OC)cnn23)cc1
< 100	Cc1c(N[C@H]2CC[C@H](N)CC2)nc2ccnn2c1Nc1ccc(OCc2cccc(Cl)c2)cc1
< 100	CCc1c(N[C@H]2CC[C@H](N)CC2)nc2ccnn2c1Nc1ccc(N2CCCC2=O)cc1
< 100	Cc1c(N[C@H]2CC[C@H](N)CC2)nc2ccnn2c1Nc1ccc(OC2CCCCC2)cc1

IC50 [µM]	SMILES
< 100	Cc1c(N[C@H]2CC[C@H](N)CC2)nc2ccnn2c1Nc1ccc(-c2ccc(CO)cc2)cc1
< 100	Cc1ccccc1COc1cccc(Nc2c(C)c(N[C@H]3CC[C@H](N)CC3)nc3ccnn23)c1
< 100	Cc1c(N[C@H]2CC[C@H](N)CC2)nc2ccnn2c1Nc1ccc(-c2cncnc2)cc1
< 100	N#Cc1cnn2c(Nc3ccccc3Cl)cc(N[C@H]3CC[C@H](N)CC3)nc12
< 100	CCOc1ccc(Nc2c(C)c(N[C@H]3CCNC3)nc3ccnn23)cc1
< 100	CCOc1ccc(Nc2c(C)c(NC3CCCNC3)nc3c(C#N)cnn23)cc1 (stereo unspecified)
< 100	CCc1c(N[C@H]2CC[C@H](N)CC2)nc2ccnn2c1Nc1cccc(Oc2ccccc2)c1
< 100	Cc1c(N[C@H]2CC[C@H](N)CC2)nc2ccnn2c1Nc1cccc(OCc2cccc(N)c2)c1
< 100	CCOc1ccccc1Nc1c(C)c(N[C@H]2CC[C@H](N)CC2)nc2ccnn12
< 100	Cc1c(N[C@H]2CC[C@H](N)CC2)nc2ccnn2c1Nc1ccc(OCc2ccc(Cl)cc2)cc1
< 100	CCOc1ccc(Nc2c(C)c(N[C@@H]3CCN(Cc4ccccc4)C3)nc3ccnn23)cc1
< 100	Cc1c(N[C@H]2CC[C@H](N)CC2)nc2ccnn2c1Nc1ccc(-c2cc3ccccc3[nH]2)cc1
< 100	CCc1c(N[C@H]2CC[C@H](N)CC2)nc2ccnn2c1Nc1ccc(OC)c(OC)c1
< 100	Cc1c(N[C@H]2CC[C@H](N)CC2)nc2ccnn2c1NCC(C)(C)C
< 100	CCc1c(N[C@H]2CC[C@H](N)CC2)nc2ccnn2c1Nc1cccc(OCc2ccccc2)c1
< 100	Cc1c(N[C@H]2CC[C@H](N)CC2)nc2ccnn2c1Nc1ccc(OC(F)(F)F)c(Cl)c1
< 100	Cc1c(N[C@H]2CC[C@H](N)CC2)nc2ccnn2c1Nc1ccc(-c2cccc(OC(F)(F)F)c2)cc1
< 100	CCOc1ccc(Nc2c(CC)c(N[C@H]3CC[C@H](N)CC3)nc3ccnn23)cc1
< 100	COc1cccc(-c2ccc(Nc3c(C)c(N[C@H]4CC[C@H](N)CC4)nc4ccnn34)cc2)c1
< 100	Cc1c(N[C@H]2CC[C@H](N)CC2)nc2ccnn2c1Nc1ccc(OCCCl)cc1
< 100	Cc1csc(-c2ccc(Nc3c(C)c(N[C@H]4CC[C@H](N)CC4)nc4ccnn34)cc2)c1
< 100	CCOc1ccc(Nc2c(C)c(N(C)C3CCCNC3)nc3ccnn23)cc1 (stereo unspecified)
< 100	Cc1c(N[C@H]2CC[C@H](N)CC2)nc2ccnn2c1Nc1ccc(-c2ccccc2C(F)(F)F)cc1
< 100	Cc1c(N[C@H]2CC[C@H](N)CC2)nc2ccnn2c1Nc1cccc(OCC(O)CO)c1 (stereo partly specified)

IC50 [µM]	SMILES
< 100	CCOc1ccc(Nc2c(C)c(N[C@H]3CC[C@H](N)CC3)nc3c(S(C)(=O)=O)cnn23)cc1
< 100	Cc1c(N[C@H]2CC[C@H](N)CC2)nc2ccnn2c1Nc1ccc(C(=O)c2ccccc2)cc1
< 100	CCOc1ccc(Nc2c(C)c(N[C@H]3CC[C@H](N)CC3)nc3c(C4CC4)cnn23)cc1
< 100	CCc1c(N[C@H]2CC[C@H](N)CC2)nc2ccnn2c1Nc1ccccc1Cl
< 100	Cc1c(NC2CCCNC2)nc2ccnn2c1Nc1ccc(-c2ccc(N)cc2)cc1 (stereo unspecified)
< 100	CCOc1ccc(Nc2c(C)c(NC3CCCNC3)nc3c(C(C)C)cnn23)cc1 (stereo unspecified)
< 100	CCOc1cccc(Nc2c(CC)c(N[C@H]3CC[C@H](N)CC3)nc3ccnn23)c1
< 100	Cc1ccc(COc2cccc(Nc3c(C)c(N[C@H]4CC[C@H](N)CC4)nc4ccnn34)c2)cc1
< 100	Cc1c(N[C@H]2CC[C@H](N)CC2)nc2ccnn2c1Nc1ccc(-c2ccc(C(F)(F)F)cc2)cc1
< 100	Cc1nc2cc(Nc3c(C)c(N[C@H]4CC[C@H](N)CC4)nc4ccnn34)ccc2s1
< 100	CCOc1ccc(Nc2c(C)c(N[C@H]3CC[C@H](N)CC3)nc3c(N)cnn23)cc1
< 100	COc1c(NC2CCCNC2)nc2ccnn2c1Nc1ccc(F)c(Cl)c1 (stereo unspecified)
< 100	CCOc1ccc(Nc2c(C)c(NC3(CO)CCCC3)nc3ccnn23)cc1
< 100	Cc1c(N[C@H]2CC[C@H](N)CC2)nc2c(C(=O)C(F)(F)F)cnn2c1Nc1ccc(I)cc1
< 100	CCCOc1ccc(Nc2c(C)c(N[C@H]3CC[C@H](N)CC3)nc3ccnn23)cc1
< 100	Cc1ccc(Nc2c(C)c(NC3CCCNC3)nc3ccnn23)cc1C (stereo unspecified)
< 100	N[C@H]1CC[C@H](Nc2cc(Nc3ccc(F)c(Cl)c3)n3ncc(I)c3n2)CC1
< 100	CCOc1ccc(Nc2c(C)c(N[C@@H]3CN[C@@H](C(=O)O)C3)nc3ccnn23)cc1
< 100	Cc1ccc(Nc2c(C)c(N[C@H]3CC[C@H](N)CC3)nc3ccnn23)cc1C
< 100	Cc1ccc(-c2ccc(Nc3c(C)c(N[C@H]4CC[C@H](N)CC4)nc4ccnn34)cc2)cc1
< 100	CCOc1ccc(Nc2c(C)c(N(CC)C3CCCNC3)nc3ccnn23)cc1 (stereo unspecified)
< 100	Cc1c(N[C@H]2CC[C@H](N)CC2)nc2ccnn2c1Nc1ccc(O)cc1
< 100	CCCNc1c(C)c(N[C@H]2CC[C@H](N)CC2)nc2ccnn12
< 100	CSc1cnn2c(Nc3ccc(F)c(Cl)c3)cc(N[C@H]3CC[C@H](N)CC3)nc12

IC50 [µM]	SMILES
< 100	CCOc1ccc(Nc2c(C)c(NC(CO)C(C)C)nc3ccnn23)cc1 (stereo unspecified)
< 100	COCCOc1ccc(Nc2c(C)c(N[C@H]3CC[C@H](N)CC3)nc3ccnn23)cc1
< 100	CCCCOc1ccc(Nc2c(CCCO)c(N[C@H]3CC[C@H](N)CC3)nc3ccnn23)cc1
< 100	COc1ccc(Nc2c(CCCO)c(N[C@H]3CC[C@H](N)CC3)nc3ccnn23)cc1
< 100	CSc1cccc(Nc2c(C)c(N[C@H]3CC[C@H](N)CC3)nc3ccnn23)c1
< 100	Cc1c(N[C@H]2CC[C@H](N)CC2)nc2ccnn2c1Nc1ccc(-c2cn[nH]c2)cc1
< 100	C=C(C)CNc1c(CC)c(N[C@H]2CC[C@H](N)CC2)nc2ccnn12
< 100	CCOC(=O)c1cccc(Nc2c(C)c(N[C@H]3CC[C@H](N)CC3)nc3ccnn23)c1
< 100	Cc1nn2c(Nc3ccc(F)c(Cl)c3)cc(N[C@H]3CC[C@H](N)CC3)nc2c1Br
< 100	CCc1c(NC2CCCNC2)nc2ccnn2c1Nc1ccc(OC)c(Cl)c1 (stereo unspecified)
< 100	Cc1c(N[C@H]2CC[C@H](N)CC2)nc2c(F)cnn2c1Nc1ccc(I)cc1
< 100	Cc1c(N[C@H]2CC[C@H](N)CC2)nc2ccnn2c1Nc1ccc(OCCN2CCOCC2)cc1
< 100	Cc1c(N[C@H]2CC[C@H](N)CC2)nc2ccnn2c1Nc1ccc(OCc2cccnc2)cc1
< 100	Cc1c(N[C@H]2CC[C@H](N)CC2)nc2ccnn2c1Nc1ccc(I)cc1
< 100	CCOc1ccc(Nc2c(OC)c(NC3CCCNC3)nc3ccnn23)cc1 (stereo unspecified)
< 100	Cc1c(N[C@H]2CC[C@H](N)CC2)nc2ccnn2c1Nc1ccc(OCC2CCCC2)cc1
< 100	Cc1c(N[C@H]2CC[C@H](N)CC2)nc2ccnn2c1Nc1ccc(OCC2CCCN(C)C2)cc1 (stereo partly specified)
< 100	CCOc1ccc(Nc2c(C)c(N[C@H]3CC[C@H](N)CC3)nc3c(NC)cnn23)cc1
< 100	N[C@H]1CC[C@H](Nc2cc(NCc3cccc(Cl)c3)n3ncc(I)c3n2)CC1
< 100	CCOc1ccc(Nc2c(C)c(N[C@H]3CC[C@H](N)CC3)nc3c(C(=O)Nc4ccncc4)cnn23)cc1
< 100	CCOc1ccc(Nc2c(C)c(N[C@H]3CC[C@H](N)CC3)nc3c(C(=O)Nc4ccccc4)cnn23)cc1
< 100	Cc1c(N[C@H]2CC[C@H](N)CC2)nc2ccnn2c1Nc1ccc(-c2ccc(Cl)cc2)cc1
< 100	Cc1c(N[C@H]2CC[C@H](N)CC2)nc2ccnn2c1Nc1ccc(C(=O)Nc2ccccc2)cc1
< 100	Cc1c(N[C@H]2CC[C@H](N)CC2)nc2ccnn2c1Nc1ccc(F)c(Cl)c1

— the Kinase Knowledgebase extract (Sharma et al. 2016)
